Results published in patent publication US8211402B2, “CA-IX specific radiopharmaceuticals for the treatment and imaging of cancer” (Molecular Insight Pharmaceuticals, Inc., priority 2008, dated 2012).

Legend:
CA-II = target: T1, CA-II (Homo sapiens, UniProt P00918); assay: Inhibition of carbonic anhydrase II (4-nitrophenyl acetate hydrolysis, spectrophotometric at 400 nm); type: biochemical; details: purified human enzyme 30 nM; 9 mM Tris-HCl, 81 mM NaCl, pH 7.4, 25° C.; 10 min preincubation
T1 construct: purchased R&D Systems
Experimental: (§1) Compounds were tested for their ability to inhibit carbonic anhydrase isozymes II and IX in vitro. Purified human enzymes were from R&D Systems (Minneapolis, Minn.). The inhibition constants (Ki) for CA-II and CA-IX were determined by the method of Pocker and Stone. Initial rates of 4-nitrophenyl acetate hydrolysis catalyzed by the different carbonic anhydrase isozymes were measured spectrophotometrically at 400 nm. Solutions of substrate (1×10^−2 to 1×10^−6 M) were prepared in anhydrous acetonitrile. A molar extinction coefficient of 18,000 M^−1·cm^−1 was used for the 4-nitrophenolate formed by hydrolysis under the conditions of the experiment (9 mM Tris-HCl, 81 mM NaCl, pH 7.4, 25° C.). The enzyme concentrations were 100 nM for CA-IX and 30 nM for CA-II. Non-enzymatic hydrolysis rates, determined in the absence of added enzyme, were subtracted from the observed rates. […] Dilutions of inhibitor were added to enzyme solutions and preincubated for 10 min to allow for the formation of the E-I complex prior to the addition of substrate. Acetazolamide was included in all assays as positive controls

CA-IX = target: T2, CA-IX (Homo sapiens, UniProt Q16790); assay: Inhibition of carbonic anhydrase IX (4-nitrophenyl acetate hydrolysis, spectrophotometric at 400 nm); type: biochemical; details: purified human enzyme 100 nM; 9 mM Tris-HCl, 81 mM NaCl, pH 7.4, 25° C.; 10 min preincubation
T2 construct: purchased R&D Systems
Experimental: as §1

With `NS(=O)(=O)c1ccc(NC(=S)N[C@@H](CC(=O)O)C(=O)N[C@@H](CC(=O)O)C(=O)NCc2ccc(I)cc2)cc1` [Comparative Example 1] the IC50 (CA-II) was 377 nM and the IC50 (CA-IX) was 77 nM.
